We go through two compounds from patent US9938316B2, “Selective inhibitors of α2 isoform of Na,K-ATPase and use thereof for reduction of intra-ocular pressure and as cardiotonic agents” (priority 2013, dated 2018).

Structures are written as SMILES. Values joined by “and” are separate entries in the source; they are usually repeats but may differ in a detail not shown here. Equal entries are not always repeated.

The subject of one data set is cornea of rabbits. The data set can be described thus: Pachymetry: corneal thickness and local toxicity after topical cardiac glycosides. The data set is classed as in vivo, New Zealand white rabbits. To be noted: for Corneal thickness: 0.5 mM; for Corneal thickness (in words): over 4 hours, Digoxin 1 mM, DGlyN 0.5 mM, DMe 0.5 mM, ouabain 1 mM; for Corneal thickness (in words) / Redness or local irritation in conjunctiva or cornea: after 4AP; for Redness or local irritation in conjunctiva or cornea: topical. Here is the method:
Thus, in this study, no change in corneal thickness was detected (Table 3), indicative of lack of local toxic effects. […] Similar results were obtained with CG's applied after IB-MECA.
IOP (mm Hg) of rabbits was measured using a calibrated Pneumatonometer (Model 30, Reichert technologies, FIG. 1). A local anesthetic Oxybuprocaine HCl (0.4%, 25 μl) was applied to each cornea about a minute before IOP measurements. Two baseline IOP readings were taken before topical administration of the CG (or PBS as control) and after half an hour (Zero time). […] At zero time one drop of 4AP (40 mg/ml, 30 μl) or IB-MECA (1 μM, 30 μl) was administered to both eyes of each rabbit IOP measurements were made at different times as indicated in each experiment. In the experiments for which the IOP was elevated for several hours, 4AP was added every 1.5 hours or IB-MECA every 2 hours. […] Each experiment was repeated two or three times with similar results. In all cases the figures depict the average effect on IOP (i.e for four or six eyes) compared to control ±SEM. Where error bars are not seen in the figures, the errors are smaller than the symbols used. Significance of differences from the control was calculated by the unpaired Students t-test (p values), p values <0.05 were considered significant. Corneal thickness (μm) was measured using an ultrasonic pachymeter (Sonogage pachometer, Cleveland, USA), before and during the experiment with CG and 4AP treatments. The values represent averages of three independent measurements for each eye.

Data set [1] deals with T1, Na,K-ATPase α2β1 isoform complex (Homo sapiens, UniProt P50993). The data set can be described thus: biochemical. It counts as biochemical. To be noted: Ki ± S.E. α2, Table 2; α2β1. The method, then: (§1) Methods for transformation, culture of P. pastoris clones, protein expression of Na,K-ATPase human isoforms (α1β1, α2β1, α3β1), membrane preparation, solubilization of membranes in DDM, and purification on BD-Talon beads have been described in detail (6-9, 11, 25). In initial experiments the three purified isoform complexes (0.3-0.5 mg/ml) were eluted from the BD-Talon beads in a solution containing Imidazole 170 mM, NaCl 100 mM; Tricine.HCl 20 mM pH 7.4; C12E8, 0.1 mg/ml; SOPS 0.07 mg/ml cholesterol 0.01 mg/ml, glycerol 25%. In later experiments the isoforms complexes were reconstituted with purified FXYD1 on the BD-Talon beads together as described in detail in (10, 11) prior to elution of α1β1FXYD1, α2β1FXYD1 and α3β1FXYD1 complexes. The proteins were stored at −80° C. Protein concentration was determined with BCA (B9643 Sigma).
(§2) Inhibition of Na,K-ATPase activity of the detergent-soluble α1β1, α2β1, and α3β1 complexes by CG's was determined as described (6) using either the αβ or αβFXYD1 complexes. […] The K0.5K was estimated by varying K concentration in a medium containing a fixed total K+choline chloride of 60 mM, and constant NaCl of 140 mM. Curves were fitted to the Hill function v=Vmax*[S]^n/([S]^n+K^n), where S is the K concentration, n is the Hill coefficient and K^n is K0.5K. For comparison of different curves the ratio v/Vmax for each curve was calculated and replotted. In experiments to assess inhibition of Na,K-ATPase activity by cardiac glycosides of the present invention, the percent inhibition VCG/V0 was calculated and Ki values were obtained by fitting the data to the function VCG/V0=Ki/([CG]+Ki)+ c. Inhibition was estimated in 3-8 separate experiments and average Ki values ±SEM were calculated. Significance of differences between Kiα1 and Kiα2 was calculated by the unpaired Student's t-test (p values). […] P values <0.05 were considered significant.

Data set [2] concerns Na,K-ATPase α2β1 isoform complex. The data set can be described thus: biochemical. It counts as biochemical, human. To be noted: for Selectivity ratio Ki α1/α2 ± S.E.: Kiα1β1/Kiα2β1. Here is the method:
as §1, §2

Data set [3] has as its target T2, Na,K-ATPase α2β2 isoform complex (Homo sapiens, UniProt P50993).
T2 construct: made in house; host or cells: Pichia pastoris SMD1165
The data set is described as follows: biochemical.
Source text: (§3) Human β1, β2 and β3 were cloned into the pHIL-D2 expression vector containing the human α1 or α2. pHIL-D2 expression vectors containing porcine (p) α1, human (h) α1 or human α2 with Hisx10 tagged porcine β1 were previously generated (7, 9). Human β1 (Accession: P05026), human β2 (Accession: P14415) and human β3 (Accession: […]) cDNAs in pSD5 vector were a gift from K. Geering Univ. Lausanne Switzerland. The open reading frames and flanking regions of hβ1, hβ2 and hβ3 (in pSD5) were amplified separately by polymerase chain reaction (PCR) using synthetic primers containing BglII and SalI cleavage sites. Each one of the amplified fragments were digested with BglII and SalI and ligated to BglII and SalI treated plasmid pHIL-D2-(pα1/His10pβ1) to generate pHIL-D2 (pα1/His10hβ1or2or3). hβ1, hβ2 and hβ3 containing fragments were excised from pHIL-D2-(pα1/His10hβ1or2or3) and subcloned into pHIL-D2-(hα1/His10pβ1) or pHIL-D2-(hα2/His10pβ1) to produce pHIL-D2-(hα1/His10hβ1or2or3) and pHIL-D2-(hα2/His10hβ1or2or3). The newly created plasmids were analyzed for correct integration and correct sequence of the insert by restriction enzymatic digestions and sequencing. DNA of each construct was prepared in large quantities in E. coli XL-1 Blue for Pichia pastoris transformation.
as §2

Data set [4] has as its system Na,K-ATPase α2β2 isoform complex. The data set is described as follows: biochemical. Particulars: ratio of Ki, Table 6. Also noted: species or system human.
Source text: as §3, §2

Data set [5] has as its target T3, Na,K-ATPase α2β3 isoform complex (Homo sapiens, UniProt P50993).
T3 construct: made in house; host or cells: Pichia pastoris SMD1165
The data set can be described thus: biochemical.
Source text: as §3, §2

For data set [6], the system named is Na,K-ATPase α2β3 isoform complex. The data set can be described thus: biochemical. Particulars: ratio of Ki, Table 6. Also noted: species or system human.
Source text: as §3, §2

Data set [7] has as its target Na,K-ATPase α1β1 isoform complex (Homo sapiens, UniProt P05023). The data set can be described thus: biochemical. Also noted: made in house; host or cells: Pichia pastoris SMD1165. To be noted: Ki, nM ± SEM α1β1, Table 6. The method, then:
as §1, §2

The target in data set [8] is T1, Na,K-ATPase α2β1 isoform complex. The data set can be described thus: biochemical. Also noted: made in house; host or cells: Pichia pastoris SMD1165. It counts as biochemical. Particulars: Ki, nM ± SEM α2β1, Table 6. The method, then:
as §1, §2

Usually Ki stands for a measure of affinity in units of concentration, obtained from inhibition or displacement. Low values mean tighter binding, high ones weaker binding. For `CC1CN(CC(N)=O)CCC(OC2C(O)CC(OC3C(O)CC(OC4CCC5(C)C(CCC6C5CC(O)C5(C)C(C7=CC(=O)OC7)CCC65O)C4)OC3C)OC2C)O1` (stereo not drawn) [DGlyN], the Corneal thickness in the data set on cornea of rabbits (left eye, 0 h) was found to be 498 microns; in the data set with cornea of rabbits (left eye, 2 h), 462 microns; in the data set with cornea of rabbits (left eye, 4 h), 455 microns; in the data set on cornea of rabbits (right eye, 0 h) it was 496 microns; with cornea of rabbits (right eye, 2 h), 476 microns; with cornea of rabbits (right eye, 4 h), 454 microns. For the same compound, the “Corneal thickness (in words)” value in the data set on cornea of rabbits is “not significantly affected”. The “Redness or local irritation in conjunctiva or cornea” value in the data set on cornea of rabbits is on record as “neither redness nor local irritation were observed”. The same compound registered a Ki in data set [1] of 20.4 ± 1 nM. For the same compound, in data set [2], the “Selectivity ratio Ki α1/α2 ± S.E.” value is 7.45±0.46 and 7.45.
Turning to `CC1CN(C)CCC(OC2C(O)CC(OC3C(O)CC(OC4CCC5(C)C(CCC6C5CC(O)C5(C)C(C7=CC(=O)OC7)CCC65O)C4)OC3C)OC2C)O1` (stereo not drawn) [DMe], the Ki in [3] is 20.4 ± 1.8 nM; in [5] it was 10.8 ± 0.6 nM; in data set [7], 103 ± 5.6 nM; in [8], 15.3 ± 1.2 nM; in data set [1], 15.6 ± 2.3 nM. The “Selectivity α1β1/α2/β2” value in data set [4] was found to be 5.07. Also, the “Selectivity α1β1/α2β3” value in data set [6] was 9.5. Further, the Corneal thickness is 465 microns in the data set with cornea of rabbits (left eye, 0 h); 440 microns with cornea of rabbits (left eye, 2 h); 453 microns with cornea of rabbits (left eye, 4 h); 507 microns in the data set with cornea of rabbits (right eye, 0 h); 476 microns in the data set on cornea of rabbits (right eye, 2 h); 498 microns in the data set with cornea of rabbits (right eye, 4 h). Moreover, the “Corneal thickness (in words)” value in the data set with cornea of rabbits is recorded as “not significantly affected”. Moreover, in the data set with cornea of rabbits, the “Redness or local irritation in conjunctiva or cornea” value is reported as “neither redness nor local irritation were observed”. For the same compound, the “Selectivity ratio Ki α1/α2 ± S.E.” value in data set [2] is 6.47±0.71. Also, the “Selectivity α1β1/α2/β1” value in [2] (ratio of Ki, Table 6) amounted to 6.7.
